Experimental data published in ChEMBL document CHEMBL3797088, “Discovery and structure activity relationship study of novel indazole amide inhibitors for extracellular signal-regulated kinase1/2 (ERK1/2)” (Bioorg Med Chem Lett, 2016).

target: Mitogen-activated protein kinase 1 (Homo sapiens, UniProt P28482); assay: Inhibition of human recombinant GST-tagged ERK2 expressed in Escherichia coli using ser/thr 3 Peptide as substrate preincubated for 1 hr measured after 1 hr by Z-LYTE assay; conditions: not given
Sequence (P28482 whole entry): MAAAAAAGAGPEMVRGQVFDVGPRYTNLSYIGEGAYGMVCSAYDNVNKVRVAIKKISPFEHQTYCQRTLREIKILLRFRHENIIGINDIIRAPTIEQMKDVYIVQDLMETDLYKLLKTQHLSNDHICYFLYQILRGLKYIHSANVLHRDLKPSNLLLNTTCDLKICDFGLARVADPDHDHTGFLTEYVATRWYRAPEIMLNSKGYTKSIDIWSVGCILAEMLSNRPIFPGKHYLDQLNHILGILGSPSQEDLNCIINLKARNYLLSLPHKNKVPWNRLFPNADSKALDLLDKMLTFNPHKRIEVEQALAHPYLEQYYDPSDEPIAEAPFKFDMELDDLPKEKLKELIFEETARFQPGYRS

`O=C(NC(CO)c1cccc(Cl)c1)c1ccc2[nH]nc(C3CCOCC3)c2c1` (stereo not drawn) and `O=C(N[C@@H](CO)c1cccc(Cl)c1)c1ccc2[nH]nc(-c3ccncc3)c2c1` are within 1.5-fold of each other in IC50: 297 nM for the first, 219 nM for the second.

Going from `O=C(NCc1ccccc1)c1ccc2[nH]nc(-c3ccncc3)c2c1` to `CC(CNC(=O)c1ccc2[nH]nc(-c3ccncc3)c2c1)OCc1ccccc1` (stereo not drawn), the IC50 rises from 50.6 nM to 88.7 nM (1.8-fold).

First: CC(C)Nc1cc(-c2c[nH]c(C(=O)N[C@H](CO)c3ccccc3)c2)c(Cl)cn1
Second: Cc1cc(-c2n[nH]c3ccc(C(=O)NC(C)c4cccc(Cl)c4)cc23)cc(C)n1 (stereo not drawn)
The IC50 of the first is 6.9-fold lower: 15.9 nM for the first, 110 nM for the second.

Going from `O=C(NCc1cccc(Cl)c1)c1ccc2[nH]nc(-c3ccncc3)c2c1` to `O=C(NCc1ccnc(Cl)c1)c1ccc2[nH]nc(-c3ccncc3)c2c1`, the IC50 rises from 12.6 nM to 22.5 nM (1.8-fold).

First: O=C(NCCNc1ccccc1)c1ccc2[nH]nc(-c3ccncc3)c2c1
Second: CC(NC(=O)c1ccc2[nH]nc(-c3cc(F)c(O)c(F)c3)c2c1)c1cccc(Cl)c1 (stereo not drawn)
The IC50 of the first is 6.2-fold higher: 139 nM for the first, 22.4 nM for the second. The second is the more potent here.

target: Mitogen-activated protein kinase 3 (Homo sapiens, UniProt P27361); assay: Inhibition of human recombinant GST-tagged ERK1 expressed in Escherichia coli using ser/thr 3 Peptide as substrate preincubated for 1 hr measured after 1 hr by Z-LYTE assay; conditions: not given
Sequence (P27361 whole entry): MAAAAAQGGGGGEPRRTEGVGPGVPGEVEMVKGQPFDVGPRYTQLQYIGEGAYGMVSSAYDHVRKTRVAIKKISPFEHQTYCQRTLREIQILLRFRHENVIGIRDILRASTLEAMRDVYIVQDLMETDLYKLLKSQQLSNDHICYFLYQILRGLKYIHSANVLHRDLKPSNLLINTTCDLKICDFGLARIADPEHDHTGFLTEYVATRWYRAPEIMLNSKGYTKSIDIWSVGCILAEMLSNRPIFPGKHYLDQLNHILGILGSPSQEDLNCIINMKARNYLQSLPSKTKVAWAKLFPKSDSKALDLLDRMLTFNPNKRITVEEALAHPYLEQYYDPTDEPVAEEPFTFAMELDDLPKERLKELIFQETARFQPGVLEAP

`O=C(NCc1ccccc1)c1ccc2[nH]nc(-c3ccncc3)c2c1` and `O=C(NCc1cccc(Cl)c1)c1ccc2[nH]nc(-c3ccncc3)c2c1` are within 1.5-fold of each other in IC50: 106 nM for the first, 74.2 nM for the second.

First: O=C(N[C@@H](CO)c1cccc(Cl)c1)c1ccc2[nH]nc(-c3ccncc3)c2c1
Second: O=C(NCc1ccnc(Cl)c1)c1ccc2[nH]nc(-c3ccncc3)c2c1
The IC50 of the first is 32-fold higher: 833 nM for the first, 26.4 nM for the second.

In the case of `CC(NC(=O)c1ccc2[nH]nc(-c3cc(F)c(O)c(F)c3)c2c1)c1cccc(Cl)c1` (stereo not drawn), the IC50 is reported as 32.3 nM.

system: not listed separately; assay: Clearance in mouse at 5 mg/kg, po or 1 mg/kg, iv; type: ADME, organism-based; conditions: in vivo

`Cc1cc(-c2n[nH]c3ccc(C(=O)NC(C)c4cccc(Cl)c4)cc23)cc(C)n1` (stereo not drawn) showed a clearance of 42 mL/min/kg.

system: HT-29; assay: Antiproliferative activity against human HT-29 cells harboring B-RAF V600E mutant after 72 hrs by SRB assay; type: functional, cell-based; conditions: HT-29, 72 h

`O=C(NC(CO)c1cccc(Cl)c1)c1ccc2[nH]nc(C3CCOCC3)c2c1` (stereo not drawn) and `O=C(N[C@@H](CO)c1cccc(Cl)c1)c1ccc2[nH]nc(-c3ccncc3)c2c1` are within 1.5-fold of each other in IC50: 11500 nM for the first, 16500 nM for the second.

Compared with `O=C(NCc1ccccc1)c1ccc2[nH]nc(-c3ccncc3)c2c1`, `CC(CNC(=O)c1ccc2[nH]nc(-c3ccncc3)c2c1)OCc1ccccc1` (stereo not drawn) is 3.6-fold lower in IC50: 13300 nM for the first, 3700 nM for the second. The second is the more potent here.

Going from `CC(C)Nc1cc(-c2c[nH]c(C(=O)N[C@H](CO)c3ccccc3)c2)c(Cl)cn1` to `Cc1cc(-c2n[nH]c3ccc(C(=O)NC(C)c4cccc(Cl)c4)cc23)cc(C)n1` (stereo not drawn), the IC50 rises from 1600 nM to 3800 nM (2.4-fold). The first is the more potent here.

First: O=C(NCc1cccc(Cl)c1)c1ccc2[nH]nc(-c3ccncc3)c2c1
Second: O=C(NCc1ccnc(Cl)c1)c1ccc2[nH]nc(-c3ccncc3)c2c1
The IC50 of the first is 4.1-fold lower: 2300 nM for the first, 9400 nM for the second. The first is the more potent here.

Going from `O=C(NCCNc1ccccc1)c1ccc2[nH]nc(-c3ccncc3)c2c1` to `CC(NC(=O)c1ccc2[nH]nc(-c3cc(F)c(O)c(F)c3)c2c1)c1cccc(Cl)c1` (stereo not drawn), the IC50 falls from 6700 nM to 3300 nM (2-fold). The second is the more potent here.

system: not listed separately; assay: AUC (0 to 24 hrs) in mouse at 5 mg/kg, po; type: ADME, organism-based; design: dose 5 mg/kg, time < 24 hr, route oral; conditions: in vivo

With `Cc1cc(-c2n[nH]c3ccc(C(=O)NC(C)c4cccc(Cl)c4)cc23)cc(C)n1` (stereo not drawn) the AUC(0-t) at 24 h was 162 ng·h/mL.

system: not listed separately; assay: Oral bioavailability in mouse at 5 mg/kg; type: ADME, organism-based; conditions: in vivo

`Cc1cc(-c2n[nH]c3ccc(C(=O)NC(C)c4cccc(Cl)c4)cc23)cc(C)n1` (stereo not drawn) showed a bioavailability of 8%.
